Source: patent EP4585588A1, “BENZIMIDAZOLE COMPOUND, AND PREPARATION METHOD THEREFOR AND USE THEREOF” (Suzhou Pharmavan Co., Ltd., priority 2022, dated 2024)

tested on: myosin heavy chain β (β-MHC); details: 48 h, 10 µM
Protocol: Primary cardiomyocytes of suckling rats were isolated and cultured and inoculated on a cell culture plate. A drug stock solution was taken and separately added to cell wells according to a certain dilution ratio, and a final concentration was 10 µM. After half hour of drug action, a phenylephrine (PE) stock solution was added, and a final concentration of PE was 20 µM. After 48 hours of PE action, cell samples were collected for real-time quantitative PCR assay or cell area measurement.
Separation and plating of cardiomyocytes of rats: a certain number of SPF suckling rats were taken and placed in a clean bench according to an actual requirement for the number of cells, thoracic cavities were opened by scissors, hearts were separated, and the hearts were cut into tissue fragments with sterilized surgical scissors; Collagenase Type II (manufacturer: Sigma, article No.: C2-28-100MG) was added to a D-HANKS balanced salt buffer to prepare a 5 µg/mL enzyme digestion solution, and the tissue fragments of hearts were continuously digested for three times in a 37 °C constant-temperature water bath box; about 2 mL of the enzyme digestion solution was added for the first time, a supernatant was discarded after digestion, centrifugation and precipitation of cardiomyocytes and tissue fragments, about 4 mL of the enzyme digestion solution was independently added for the second time and the third time to continue digestion, a supernatant was remained each time, DMEM containing 10% FBS with the same volume as the digestion solution in the supernatant was immediately added to neutralize digestive enzymes, the supernatants for the second time and the third time were combined and centrifuged, a supernatant was discarded, an appropriate amount of DMEM containing 10% FBS was added to resuspend the cardiomyocytes, the cardiomyocytes were inoculated in a 100 mm culture plate and subjected to differential adhesion in a constant-temperature cell incubator for 2 h, and a supernatant was taken for cell count.
A 24-well plate precoated with 1% gelatin was taken and plated at 1×10^5 cells/well, 500 µL of a 10% FBS+DMEM medium was contained in each well, and cells were cultured in a 37 °C constant-temperature cell incubator for 24 h. Different compounds were independently prepared into a 100 mM mother liquor with DMSO and gradient diluted with a 10% FBS+DMEM medium to prepare a 10 µM final solution of the compound containing 0.5% DMSO. The medium in the 24-well plate was discarded and replaced with a 500 µL/well medium containing a 10 µM compound, and three replicate wells and a negative control well were set for each compound. After 0.5 hours of drug action, PE (manufacturer: Meilun Biotechnology; article No.: MB1602) with a final concentration of 20 µM was added to each well, and no PE was added to the negative control wells; after 48 hours of PE action, sample detection was performed.
Expression levels of genes related to cardiomyocyte hypertrophy was analyzed via real-time quantitative PCR detection of mRNA level of atrial natriuretic peptide (ANP) and myosin heavy chain β (β-MHC). The steps include extraction of total RNA of cells, reverse transcription synthesis of cDNA and real-time quantitative PCR assay.
Based on real-time quantitative PCR detection of an mRNA level of ANP of cardiomyocytes, a drug with a potential of anti-cardiomyocyte hypertrophy was preliminarily screened and verified with an mRNA level of another hypertrophy gene β-MHC using a statistical method One-way ANOVA and statistical software GraphPad Prism.

First: CC(O)c1c(C#N)cc(C(N)=O)cc1-c1ccc2[nH]cnc2c1 (stereo not shown) [Formula II-78, 3-cyano-4-(1-hydroxyethyl)-5-(1H-benzimidazol-5-yl)benzamide]
Second: Cc1nc2cc(-c3cc(C(N)=O)cc(C#N)c3C(C)O)ccc2[nH]1 (stereo not shown) [Formula II-54, 3-cyano-4-(1-hydroxyethyl)-5-(2-methyl-1H-benzimidazol-5-yl)benzamide]
The “Mean (real-time quantitative PCR validation results of cardiomyocyte β-MHC)” value (“Mean” for short) of the first is higher: 1.35 for the first, 1.28 for the second.

Compared with CN(C)C(=O)c1cc(F)c(O)c(-c2ccc3[nH]cnc3c2)c1 [Formula I-31, 3-fluoro-4-hydroxy-N,N-dimethyl-5-(1H-benzimidazol-5-yl)benzamide], CN(C)C(=O)c1cc(F)c(CO)c(-c2ccc3[nH]cnc3c2)c1 [Formula II-128, 3-fluoro-4-(hydroxymethyl)-N,N-dimethyl-5-(1H-benzimidazol-5-yl)benzamide] is lower in “Mean” value: 1.29 for the first, 1.27 for the second.

Compared with CC(O)c1ccc(C(=O)O)cc1-c1ccc2[nH]cnc2c1 (stereo not shown) [Formula II-82, 4-(1-hydroxyethyl)-3-(1H-benzimidazol-5-yl)benzoic acid], O=C(O)c1ccc(O)c(-c2ccc3[nH]cnc3c2)c1 [Formula I-33, 4-hydroxy-3-(1H-benzimidazol-5-yl)benzoic acid] is higher in “Mean” value: 1.15 for the first, 1.22 for the second.

First: CN(C)C(=O)c1cc(C#N)c(CO)c(-c2ccc3[nH]cnc3c2)c1 [Formula II-129, 3-cyano-4-(hydroxymethyl)-N,N-dimethyl-5-(1H-benzimidazol-5-yl)benzamide]
Second: COC(=O)c1cc(C#N)c(O)c(-c2ccc3[nH]cnc3c2)c1 [Formula I-38, methyl 3-cyano-4-hydroxy-5-(1H-benzimidazol-5-yl) benzoate]
The “Mean” value of the first is higher: 1.34 for the first, 1.26 for the second.

Going from Cc1nc2cc(-c3cc(CC#N)ccc3O)ccc2[nH]1 [Formula I-18, 2-(4-hydroxy-3-(2-methyl-1H-benzimidazol-5-yl)phenyl)acetonitrile] to CCCc1ccc(O)c(-c2ccc3[nH]c(C)nc3c2)c1 [Formula I-21, 2-(2-methyl-1H-benzimidazol-5-yl)-4-propylphenol], the “Mean” value falls from 1.18 to 1.05.

Compared with C=CCc1cc(C#N)c(C(C)(C)O)c(-c2ccc3[nH]c(C)nc3c2)c1 [Formula II-18, 5-allyl-2-(2-hydroxypropan-2-yl)-3-(2-methyl-1H-benzimidazol-5-yl)benzonitrile], C=CCc1cc(F)c(C(C)(C)O)c(-c2ccc3[nH]c(C)nc3c2)c1 [Formula II-17, 2-(4-allyl-2-fluoro-6-(2-methyl-1H-benzimidazol-5-yl)phenyl)propane-2-ol] is lower in “Mean” value: 1.19 for the first, 1.13 for the second.

First: CC(C)(O)c1c(C#N)cc(C(=O)O)cc1-c1ccc2[nH]cnc2c1 [Formula II-36, 3-cyano-4-(2-hydroxypropan-2-yl)-5-(1H-benzimidazol-5-yl)benzoic acid]
Second: CC(C)(O)c1c(C#N)cc(C(N)=O)cc1-c1ccc2[nH]cnc2c1 [Formula II-30, 3-cyano-4-(2-hydroxypropan-2-yl)-5-(1H-benzimidazol-5-yl)benzamide]
The “Mean” value of the first is higher: 1.41 for the first, 1.21 for the second.

First: COC(=O)c1ccc(O)c(-c2ccc3[nH]c(C)nc3c2)c1 [Formula I-12, methyl 4-hydroxy-3-(2-methyl-1H-benzimidazol-5-yl) benzoate]
Second: COC(=O)c1cc(F)c(CO)c(-c2ccc3[nH]c(C)nc3c2)c1 [Formula II-110, methyl 3-fluoro-4-(hydroxymethyl)-5-(2-methyl-1H-benzimidazol-5-yl) benzoate]
The “Mean” value of the first is lower: 1.19 for the first, 1.34 for the second.

Compared with Cc1nc2cc(-c3cc(C(=O)N(C)C)cc(C#N)c3C(C)O)ccc2[nH]1 (stereo not shown) [Formula II-57, 3-cyano-4-(1-hydroxyethyl)-N,N-dimethyl-5-(2-methyl-1H-benzimidazol-5-yl)benzamide], COC(=O)c1cc(C#N)c(C(C)O)c(-c2ccc3[nH]c(C)nc3c2)c1 (stereo not shown) [Formula II-63, methyl 3-cyano-4-(1-hydroxyethyl)-5-(2-methyl-1H-benzimidazol-5-yl) benzoate] is higher in “Mean” value: 1.26 for the first, 1.36 for the second.

First: CC(C)(O)c1c(F)cc(F)cc1-c1ccc2[nH]cnc2c1 [Formula II-26, 2-(2,4-difluoro-6-(1H-benzimidazol-5-yl)phenyl)propane-2-ol]
Second: CC(C)(O)c1ccc(F)cc1-c1ccc2[nH]cnc2c1 [Formula II-25, 2-(4-fluoro-2-(1H-benzimidazol-5-yl)phenyl)propane-2-ol]
The “Mean” value of the first is lower: 1.42 for the first, 1.52 for the second.

Compared with NC(=O)c1ccc(O)c(-c2ccc3[nH]cnc3c2)c1 [Formula I-27, 4-hydroxy-3-(1H-benzimidazol-5-yl)benzamide], NC(=O)c1cc(F)c(O)c(-c2ccc3[nH]cnc3c2)c1 [Formula I-28, 3-fluoro-4-hydroxy-5-(1H-benzimidazol-5-yl)benzamide] is lower in “Mean” value: 1.27 for the first, 1.07 for the second.

Compared with Cc1nc2cc(-c3cc(C(=O)O)cc(F)c3O)ccc2[nH]1 [Formula I-10, 3-fluoro-4-hydroxy-5-(2-methyl-1H-benzimidazol-5-yl)benzoic acid], Cc1nc2cc(-c3cc(CC#N)cc(F)c3O)ccc2[nH]1 [Formula I-19, 2-(3-fluoro-4-hydroxy-5-(2-methyl-1H-benzimidazol-5-yl)phenyl)acetonitrile] is higher in “Mean” value: 1.14 for the first, 1.26 for the second.

Compared with C=CCc1cc(C#N)c(C(C)O)c(-c2ccc3[nH]cnc3c2)c1 (stereo not shown) [Formula II-90, 5-allyl-2-(1-hydroxyethyl)-3-(1H-benzimidazol-5-yl)benzonitrile], C=CCc1cc(C#N)c(O)c(-c2ccc3[nH]cnc3c2)c1 [Formula I-41, 5-allyl-3-(1H-benzimidazol-5-yl)-2-hydroxybenzonitrile] is higher in “Mean” value: 1.27 for the first, 1.37 for the second.

Compared with CCCc1cc(C#N)c(CO)c(-c2ccc3[nH]c(C)nc3c2)c1 [Formula II-120, 2-(hydroxymethyl)-3-(2-methyl-1H-benzimidazol-5-yl)-5-propylbenzonitrile], Cc1nc2cc(-c3cc(C(N)=O)cc(C#N)c3CO)ccc2[nH]1 [Formula II-102, 3-cyano-4-(hydroxymethyl)-5-(2-methyl-1H-benzimidazol-5-yl)benzamide] is lower in “Mean” value: 1.45 for the first, 1.28 for the second.

Compared with CCCc1ccc(CO)c(-c2ccc3[nH]cnc3c2)c1 [Formula II-142, (2-(1H-benzimidazol-5-yl)-4-propylphenyl)methanol], CCCc1ccc(O)c(-c2ccc3[nH]cnc3c2)c1 [Formula I-45, 2-(1H-benzimidazol-5-yl)-4-propylphenol] is lower in “Mean” value: 1.40 for the first, 1.39 for the second.

First: Cc1nc2cc(-c3cc(F)ccc3C(C)O)ccc2[nH]1 (stereo not shown) [Formula II-49, 1-(4-fluoro-2-(2-methyl-1H-benzimidazol-5-yl)phenyl)ethane-1-ol]
Second: C=CCc1ccc(C(C)O)c(-c2ccc3[nH]c(C)nc3c2)c1 (stereo not shown) [Formula II-64, 1-(4-allyl-2-(2-methyl-1H-benzimidazol-5-yl)phenyl)ethane-1-ol]
The “Mean” value of the first is higher: 1.36 for the first, 1.22 for the second.

First: Cc1nc2cc(-c3cc(CC#N)cc(F)c3CO)ccc2[nH]1 [Formula II-116, 2-(3-fluoro-4-(hydroxymethyl)-5-(2-methyl-1H-benzimidazol-5-yl)phenyl)acetonitrile]
Second: Cc1nc2cc(-c3cc(C(=O)N(C)C)cc(F)c3CO)ccc2[nH]1 [Formula II-104, 3-fluoro-4-(hydroxymethyl)-N,N-dimethyl-5-(2-methyl-1H-benzimidazol-5-yl)benzamide]
The “Mean” value of the first is higher: 1.58 for the first, 1.25 for the second.

First: Cc1nc2cc(-c3cc(C(=O)N(C)C)cc(C#N)c3C(C)(C)O)ccc2[nH]1 [Formula II-9, 3-cyano-4-(2-hydroxypropan-2-yl)-N,N-dimethyl-5-(2-methyl-1H-benzimidazol-5-yl)benzamide]
Second: Cc1nc2cc(-c3cc(C(=O)O)ccc3C(C)(C)O)ccc2[nH]1 [Formula II-10, 4-(2-hydroxypropan-2-yl)-3-(2-methyl-1H-benzimidazol-5-yl)benzoic acid]
The “Mean” value of the first is lower: 1.18 for the first, 1.27 for the second.

Compared with C=CCc1cc(F)c(O)c(-c2ccc3[nH]cnc3c2)c1 [Formula I-40, 4-allyl-2-(1H-benzimidazol-5-yl)-6-fluorophenol], CCCc1cc(F)c(C(C)O)c(-c2ccc3[nH]cnc3c2)c1 (stereo not shown) [Formula II-95, 1-(2-fluoro-6-(1H-benzimidazol-5-yl)-4-propylphenyl)ethane-1-ol] is lower in “Mean” value: 1.28 for the first, 1.24 for the second.

Going from CC(O)c1ccc(CC#N)cc1-c1ccc2[nH]cnc2c1 (stereo not shown) [Formula II-91, 2-(4-(1-hydroxyethyl)-3-(1H-benzimidazol-5-yl)phenyl)acetonitrile] to COC(=O)c1ccc(CO)c(-c2ccc3[nH]cnc3c2)c1 [Formula II-133, methyl 4-(hydroxymethyl)-3-(1H-benzimidazol-5-yl) benzoate], the “Mean” value falls from 1.57 to 1.46.
